Results reported in ChEMBL document CHEMBL1125697, “Synthesis and pharmacological examination of 1-(3-methoxy-4-methylphenyl)-2-aminopropane and 5-methoxy-6-methyl-2-aminoindan: similarities to 3,4-(methylenedioxy)methamphetamine (MDMA)” (J Med Chem, 1991).
Several values for one entry are separate records, joined by “and”; a condition that tells them apart may be missing. Identical values can stand only once.

Key:
Rattus norvegicus [1] = species on record: Rattus norvegicus; assay: Compound was evaluated for the uptake inhibition of [3H]-5-HT in rats; type: functional
Rattus norvegicus [2] = assay: Momoamine and metabolic levels observed 1 week following acute dosing against at a dose of 10 mg/kg Hippocampus NE; type: ADME, organism-based; parameters: dose 10 mg/kg; settings: in vivo, 168 h
Rattus norvegicus [3] = assay: Momoamine and metabolic levels observed 2 weeks following sub-acute dosing against Frontal cortex 5-HIAA; type: ADME, organism-based; settings: in vivo, 336 h
Rattus norvegicus [4] = assay: Percentage of non disrupted rats that selected the drug lever, when given at a dose of 1.00 mg/kg; type: functional
Rattus norvegicus [5] = assay: Momoamine and metabolic levels observed 1 week following acute dosing against at a dose of 20 mg/kg Hippocampus NE; type: ADME, organism-based; parameters: dose 20 mg/kg; settings: in vivo, 168 h
Rattus norvegicus [6] = assay: Momoamine and metabolic levels observed 1 week following acute dosing against at a dose of 20 mg/kg Frontal cortex 5-HT; type: ADME, organism-based; parameters: dose 20 mg/kg; settings: in vivo, 168 h
Rattus norvegicus [7] = assay: Momoamine and metabolic levels observed at 3 hr postdrug against, at a dose of 20 mg/kg Frontal cortex 5-HIAA; type: ADME, organism-based; parameters: dose 20 mg/kg; settings: in vivo
Rattus norvegicus [8] = assay: Momoamine and metabolic levels observed at 3 hr postdrug against, at a dose of 20 mg/kg Frontal cortex DOPAC; type: ADME, organism-based; parameters: dose 20 mg/kg; settings: in vivo
Rattus norvegicus [9] = assay: Percentage of non disrupted rats that selected the drug lever, when given at a dose of 0.5 mg/kg in […]-Trained rats; type: functional
Rattus norvegicus [10] = assay: Percentage of non disrupted rats that selected the drug lever, when given at a dose of 1.00 mg/kg in […]-Trained rats; type: functional
Rattus norvegicus [11] = assay: Momoamine and metabolic levels observed at 3 hr postdrug against, at a dose of 20 mg/kg Hippocampus 5-HIAA; type: ADME, organism-based; parameters: dose 20 mg/kg; settings: in vivo
Rattus norvegicus [12] = assay: Momoamine and metabolic levels observed 1 week following acute dosing against at a dose of 20 mg/kg Frontal cortex 5-HIAA; type: ADME, organism-based; parameters: dose 20 mg/kg; settings: in vivo, 168 h
Rattus norvegicus [13] = assay: Momoamine and metabolic levels observed at 3 h postdrug against, at a dose of 20 mg/kg Hippocampus 5-HT; type: ADME, organism-based; parameters: dose 20 mg/kg; settings: in vivo
Rattus norvegicus [14] = assay: Percentage of non disrupted rats that selected the drug lever, when given at a dose of 0.25 mg/kg in S-Amphetamine-Trained rats; type: functional
Rattus norvegicus [15] = assay: Momoamine and metabolic levels observed at 3 hr postdrug against, at a dose of 20 mg/kg Frontal cortex DA; type: ADME, organism-based; parameters: dose 20 mg/kg; settings: in vivo
Rattus norvegicus [16] = assay: Effective dose was evaluated for drug discrimination in I-trained rats, when given at a dose of 0.25 micro mol/kg; type: functional
Rattus norvegicus [17] = assay: Momoamine and metabolic levels observed 2 weeks following sub-acute dosing against Frontal cortex NE; type: ADME, organism-based; settings: in vivo, 336 h
Rattus norvegicus [18] = assay: Momoamine and metabolic levels observed 2 weeks following sub-acute dosing against Frontal cortex HVA; type: ADME, organism-based; settings: in vivo, 336 h
Rattus norvegicus [19] = assay: Momoamine and metabolic levels observed 1 week following acute dosing at a dose of 10 mg/kg Frontal cortex HVA; type: ADME, organism-based; parameters: dose 10 mg/kg; settings: in vivo, 168 h
Rattus norvegicus [20] = assay: Momoamine and metabolic levels observed 2 weeks following sub-acute dosing against Frontal cortex 5-HT; type: ADME, organism-based; settings: in vivo, 336 h
Rattus norvegicus [21] = assay: Percentage of non disrupted rats that selected the drug lever, when given at a dose of 2.50 mg/kg in […]-Trained rats; type: functional; settings: dose 2.5 mg/kg
Rattus norvegicus [22] = assay: Momoamine and metabolic levels observed 1 week following acute dosing at a dose of 10 mg/kg Frontal cortex DA; type: ADME, organism-based; parameters: dose 10 mg/kg; settings: in vivo, 168 h
Rattus norvegicus [23] = assay: Momoamine and metabolic levels observed 1 week following acute dosing at a dose of 10 mg/kg Frontal cortex 5-HIAA; type: ADME, organism-based; parameters: dose 10 mg/kg; settings: in vivo, 168 h
Rattus norvegicus [24] = assay: Momoamine and metabolic levels observed at 3 hr postdrug against, at a dose of 20 mg/kg Frontal cortex NE; type: ADME, organism-based; parameters: dose 20 mg/kg; settings: in vivo
Rattus norvegicus [25] = assay: Percentage of non disrupted rats that selected the drug lever, when given at a dose of 2.00 mg/kg; type: functional
Rattus norvegicus [26] = assay: Momoamine and metabolic levels observed 1 week following acute dosing against at a dose of 20 mg/kg Hippocampus 5-HIAA; type: ADME, organism-based; parameters: dose 20 mg/kg; settings: in vivo, 168 h
Rattus norvegicus [27] = assay: Effective dose was evaluated for drug discrimination in I-trained rats, when given at a dose of 0.25 mg/kg; type: functional
Rattus norvegicus [28] = assay: Momoamine and metabolic levels observed at 3 hr postdrug against, at a dose of 20 mg/kg Frontal cortex 5-HT; type: ADME, organism-based; parameters: dose 20 mg/kg; settings: in vivo
[29] = biological target: Sodium-dependent serotonin transporter (Rattus norvegicus) (UniProt P31652); assay: Number of uptake sites for [3H]paroxetine receptor binding after sub-acute dosing against Frontal cortex; type: tissue-based
Chain of Sodium-dependent serotonin transporter (Rattus norvegicus) (P31652 whole entry): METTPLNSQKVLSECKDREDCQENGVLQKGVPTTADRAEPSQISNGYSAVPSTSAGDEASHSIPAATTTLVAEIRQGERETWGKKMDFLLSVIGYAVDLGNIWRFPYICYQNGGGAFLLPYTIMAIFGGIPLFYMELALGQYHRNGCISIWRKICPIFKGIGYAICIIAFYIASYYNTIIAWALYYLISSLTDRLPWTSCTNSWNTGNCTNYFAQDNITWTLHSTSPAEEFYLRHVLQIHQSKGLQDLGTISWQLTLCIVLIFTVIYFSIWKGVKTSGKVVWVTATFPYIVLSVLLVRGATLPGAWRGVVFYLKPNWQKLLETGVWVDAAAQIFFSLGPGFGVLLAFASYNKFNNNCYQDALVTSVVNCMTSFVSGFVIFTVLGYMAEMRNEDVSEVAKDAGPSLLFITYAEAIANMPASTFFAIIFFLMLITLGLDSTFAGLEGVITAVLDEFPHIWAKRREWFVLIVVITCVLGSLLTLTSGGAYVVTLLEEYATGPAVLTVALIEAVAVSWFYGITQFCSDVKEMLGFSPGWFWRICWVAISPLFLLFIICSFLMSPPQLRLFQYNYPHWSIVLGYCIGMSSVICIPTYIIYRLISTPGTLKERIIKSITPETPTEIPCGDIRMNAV

Rattus norvegicus [30] = assay: Momoamine and metabolic levels observed at 3 hr postdrug against, at a dose of 20 mg/kg Hippocampus NE; type: ADME, organism-based; parameters: dose 20 mg/kg; settings: in vivo
Rattus norvegicus [31] = assay: Momoamine and metabolic levels observed 2 weeks following sub-acute dosing against Frontal cortex DA; type: ADME, organism-based; settings: in vivo, 336 h
Rattus norvegicus [32] = assay: Momoamine and metabolic levels observed 1 week following acute dosing at a dose of 10 mg/kg Hippocampus 5-HIAA; type: ADME, organism-based; parameters: dose 10 mg/kg; settings: in vivo, 168 h
Rattus norvegicus [33] = assay: Percentage of non disrupted rats that selected the drug lever, when given at a dose of 0.5 mg/kg in S-Amphetamine-Trained rats; type: functional
Rattus norvegicus [34] = assay: Momoamine and metabolic levels observed 1 week following acute dosing at a dose of 10 mg/kg Frontal cortex NE; type: ADME, organism-based; parameters: dose 10 mg/kg; settings: in vivo, 168 h
Rattus norvegicus [35] = assay: Momoamine and metabolic levels observed 2 weeks following sub-acute dosing against Frontal cortex DOPAC; type: ADME, organism-based; settings: in vivo, 336 h
Rattus norvegicus [36] = assay: Percentage of non disrupted rats that selected the drug lever, when given at a dose of 0.25 mg/kg; type: functional
Rattus norvegicus [37] = assay: Momoamine and metabolic levels observed 1 week following acute dosing at a dose of 10 mg/kg Frontal cortex 5-HT; type: ADME, organism-based; parameters: dose 10 mg/kg; settings: in vivo, 168 h
Rattus norvegicus [38] = assay: Effective dose was evaluated for drug discrimination in I-trained rats, when given at a dose of 1.16 micro mol/kg; type: functional
Rattus norvegicus [39] = assay: Momoamine and metabolic levels observed 2 weeks following sub-acute dosing against Hippocampus 5-HT; type: ADME, organism-based; settings: in vivo, 336 h
Rattus norvegicus [40] = assay: Percentage of non disrupted rats that selected the drug lever, when given at a dose of 2.00 mg/kg in […]-Trained rats; type: functional
Rattus norvegicus [41] = assay: Momoamine and metabolic levels observed 1 week following acute dosing against at a dose of 20 mg/kg Hippocampus 5-HT; type: ADME, organism-based; parameters: dose 20 mg/kg; settings: in vivo, 168 h
Rattus norvegicus [42] = assay: Momoamine and metabolic levels observed 1 week following acute dosing against at a dose of 20 mg/kg Frontal cortex HVA; type: ADME, organism-based; parameters: dose 20 mg/kg; settings: in vivo, 168 h
Rattus norvegicus [43] = assay: Percentage of non disrupted rats that selected the drug lever, when given at a dose of 0.5 mg/kg; type: functional
Rattus norvegicus [44] = assay: Momoamine and metabolic levels observed 1 week following acute dosing at a dose of 10 mg/kg Frontal cortex DOPAC; type: ADME, organism-based; parameters: dose 10 mg/kg; settings: in vivo, 168 h
Rattus norvegicus [45] = assay: Momoamine and metabolic levels observed 2 weeks following sub-acute dosing against Hippocampus NE; type: ADME, organism-based; settings: in vivo, 336 h
Rattus norvegicus [46] = assay: Percentage of non disrupted rats that selected the drug lever, when given at a dose of 1.00 mg/kg in S-Amphetamine-Trained rats; type: functional
Rattus norvegicus [47] = assay: Momoamine and metabolic levels observed 2 weeks following sub-acute dosing against Hippocampus 5-HIAA; type: ADME, organism-based; settings: in vivo, 336 h
Rattus norvegicus [48] = assay: Momoamine and metabolic levels observed 1 week following acute dosing against at a dose of 10 mg/kg Hippocampus 5-HT; type: ADME, organism-based; parameters: dose 10 mg/kg; settings: in vivo, 168 h
Rattus norvegicus [49] = assay: Momoamine and metabolic levels observed at 3 hr postdrug against, at a dose of 20 mg/kg Frontal cortex HVA; type: ADME, organism-based; parameters: dose 20 mg/kg; settings: in vivo
[50] = biological target: Sodium-dependent serotonin transporter (Rattus norvegicus) (UniProt P31652); assay: Number of uptake sites for [3H]paroxetine receptor binding after sub-acute dosing against Hippocampus
Rattus norvegicus [51] = assay: Momoamine and metabolic levels observed 1 week following acute dosing against at a dose of 20 mg/kg Frontal cortex DA; type: ADME, organism-based; parameters: dose 20 mg/kg; settings: in vivo, 168 h
Rattus norvegicus [52] = assay: Momoamine and metabolic levels observed 1 week following acute dosing against at a dose of 20 mg/kg Frontal cortex NE; type: ADME, organism-based; parameters: dose 20 mg/kg; settings: in vivo, 168 h
Rattus norvegicus [53] = assay: Momoamine and metabolic levels observed 1 week following acute dosing against at a dose of 20 mg/kg Frontal cortex DOPAC; type: ADME, organism-based; parameters: dose 20 mg/kg; settings: in vivo, 168 h
Rattus norvegicus [54] = species on record: Rattus norvegicus; assay: Effective dose was evaluated for drug discrimination in I-trained rats; type: functional
Rattus norvegicus [55] = assay: Percentage of non disrupted rats that selected the drug lever, when given at a dose of 0.75 mg/kg; type: functional
[56] = Rattus norvegicus, read-out: ED50

COc1cc(CC(C)N)c(OC)cc1C (configuration not stated) [DOM]
IC50 (Rattus norvegicus [1]): 10.7 µM

COc1ccc2c(c1C)CC(N)C2 (configuration not stated)
Metabolite level (Rattus norvegicus [2]): 633
Metabolite level (Rattus norvegicus [3]): 256
SDL (Rattus norvegicus [4]): 75%
Metabolite level (Rattus norvegicus [5]): 583
Metabolite level (Rattus norvegicus [6]): 316
Metabolite level (Rattus norvegicus [7]): 146
Metabolite level (Rattus norvegicus [8]): 40
SDL (Rattus norvegicus [9]): 11%
SDL (Rattus norvegicus [10]): 13%
Metabolite level (Rattus norvegicus [11]): 272
Metabolite level (Rattus norvegicus [12]): 240
Metabolite level (Rattus norvegicus [13]): 256
SDL (Rattus norvegicus [14]): 17%
Metabolite level (Rattus norvegicus [15]): 113
ED50 (Rattus norvegicus [16]): 2.63 µmol/kg
Metabolite level (Rattus norvegicus [17]): 568
Metabolite level (Rattus norvegicus [18]): 59
Metabolite level (Rattus norvegicus [19]): 74
Metabolite level (Rattus norvegicus [20]): 415
SDL (Rattus norvegicus [21]): 50%
Metabolite level (Rattus norvegicus [22]): 88
Metabolite level (Rattus norvegicus [23]): 210
Metabolite level (Rattus norvegicus [24]): 558
SDL (Rattus norvegicus [25]): 100%
Metabolite level (Rattus norvegicus [26]): 476
IC50 (Rattus norvegicus [1]): 0.212 µM
ED50 (Rattus norvegicus [27]; [56]): 0.81 mg/kg
ED50 (Rattus norvegicus [27]; dose 0.25 mg/kg): 0.56 mg/kg
Metabolite level (Rattus norvegicus [28]): 148
No. of uptake sites [29]: 13.6
Metabolite level (Rattus norvegicus [30]): 646
Metabolite level (Rattus norvegicus [31]): 92
Metabolite level (Rattus norvegicus [32]): 434
SDL (Rattus norvegicus [33]): 33%
Metabolite level (Rattus norvegicus [34]): 414
Metabolite level (Rattus norvegicus [35]): 54
SDL (Rattus norvegicus [36]): 13%
Metabolite level (Rattus norvegicus [37]): 312
ED50 (Rattus norvegicus [38]): 3.77 µmol/kg
Metabolite level (Rattus norvegicus [39]): 434
SDL (Rattus norvegicus [40]): 38%
Metabolite level (Rattus norvegicus [41]): 462
Metabolite level (Rattus norvegicus [42]): 65
SDL (Rattus norvegicus [43]): 25%
Metabolite level (Rattus norvegicus [44]): 36
Metabolite level (Rattus norvegicus [45]): 716
SDL (Rattus norvegicus [46]): 50%
Metabolite level (Rattus norvegicus [47]): 518
Metabolite level (Rattus norvegicus [48]): 312
Metabolite level (Rattus norvegicus [49]): 112
No. of uptake sites [50]: 15.6
Metabolite level (Rattus norvegicus [51]): 81
Metabolite level (Rattus norvegicus [52]): 509
Metabolite level (Rattus norvegicus [53]): 35

C[C@H](N)Cc1ccccc1 [DEXTROAMPHETAMINE]
ED50 (Rattus norvegicus [54]): 0.31 mg/kg and 1.69 µmol/kg

COc1cc(C[C@H](C)N)ccc1C
IC50 (Rattus norvegicus [1]): 0.099 µM
ED50 (Rattus norvegicus [27]; [56]): 0.46 mg/kg
SDL (Rattus norvegicus [36]): 17%
ED50 (Rattus norvegicus [38]): 2.14 µmol/kg
SDL (Rattus norvegicus [55]): 100%
SDL (Rattus norvegicus [43]): 33%
